For one assay, the system named is Rhizoctonia solani. Kind of assay: Rhizoctonia solani (rice sheath blight/potato black scurf) in vitro test, radial growth on Potato Dextrose Agar. It is filed as cell-based. Particulars: 168 h, 300 ppm, seven days, 25° C., read-out: % control compared to the untreated check (radial growth).
The next assay deals with Colletotrichum capsici. Kind of assay: Colletotrichum capsici (anthracnose) in vitro test, radial growth on Potato Dextrose Agar. Format: cell-based. Particulars: Colletotrichum truncatum, 168 h; 300 ppm; seven days, 25° C.; read-out: % control compared to the untreated check (radial growth).
In the next assay the test system is Botrytis cinera. Kind of assay: Greenhouse Botrytis cinera test in tomato, preventive. It is filed as in vivo. As to conditions: 24 h, plants sprayed one day before inoculation, read-out: Efficacy (% control), disease severity vs untreated check.
A further assay deals with Alternaria solani. Kind of assay: Alternaria solani (early blight of tomato/potato) in vitro test, radial growth on Potato Dextrose Agar. Particulars: 168 h, 300 ppm, seven days, 25° C., read-out: % control compared to the untreated check (radial growth). It is filed as cell-based.
The next assay deals with Pyricularia oryzae. Kind of assay: microbe, parasite or virus in culture. Format: cell-based. As to conditions: 168 h, read-out: % control compared to the untreated check (radial growth).
In another assay the test system is Septoria lycopersici. The assay can be described thus: Septoria lycopersici (leaf spot of tomato) in vitro test, radial growth on Potato Dextrose Agar. It is filed as cell-based. Particulars: 168 h, seven days, 25° C., read-out: % control compared to the untreated check (radial growth).
The next assay concerns Botrytis cinerea. The assay can be described thus: Botrytis cinerea (gray mold) in vitro test, radial growth on Potato Dextrose Agar. It is filed as cell-based. As to conditions: 168 h, 300 ppm, seven days, 22° C., read-out: % (control) compared to the untreated check (radial growth).
The next assay deals with Fusarium culmorum. The assay can be described thus: Fusarium culmorum (foot rot of cereals) in vitro test, radial growth on Potato Dextrose Agar. It is filed as cell-based. As to conditions: Fusarium culmorum, 168 h, read-out: % control compared to the untreated check (radial growth).

SMILES strings stand for the structures.

For `CCN(C)C=Nc1cc(C)c(Cc2ccccc2OC(F)(F)F)cc1Cl` [Compound 102, N′-(2-chloro-5-methyl-4-(2-(trifluoromethoxy)benzyl)phenyl)-N-ethyl-N-methylformimidamide], the inhibition of growth at 300 ppm is more than 80% in the assay with Rhizoctonia solani; more than 80% in the assay with Colletotrichum capsici; more than 75% in the assay on Alternaria solani; more than 75% in the assay on Pyricularia oryzae; more than 70% in the assay with Septoria lycopersici; more than 80% in the assay with Botrytis cinerea. The pest or weed control at 500 ppm in the assay with Botrytis cinera lay in the range of 70 to 100%.
Regarding `CCN(C)C=Nc1c(C)cc(Cc2ccc(Br)cc2)c(C)c1Br` [Compound 10, N′-(2-bromo-4-(4-bromobenzyl)-3,6-dimethylphenyl)-N-ethyl-N-methylformimidamide], the inhibition of growth at 300 ppm in the assay with Rhizoctonia solani is more than 80%; with Colletotrichum capsici, more than 80%; in the assay with Alternaria solani it was more than 75%; with Pyricularia oryzae it was more than 75%; in the assay on Botrytis cinerea it was more than 80%. The pest or weed control at 500 ppm with Botrytis cinera was 70 to 100%.
Regarding `CCN(C)C=Nc1cc(C)c(Cc2c(F)cccc2Cl)cc1Cl` [Compound 184, N′-(2-chloro-4-(2-chloro-6-fluorobenzyl)-5-methylphenyl)-N-ethyl-N-methylformimidamide], the inhibition of growth at 300 ppm in the assay on Rhizoctonia solani was more than 80%; in the assay on Colletotrichum capsici it was more than 80%; with Alternaria solani, more than 75%; in the assay on Pyricularia oryzae, more than 75%; with Botrytis cinerea, more than 80%. Further, the pest or weed control at 500 ppm with Botrytis cinera fell in the range of 70 to 100%.
As for `Cc1cc(N=CN(C#N)CC#N)c(C)cc1Cc1ccccc1Cl` [Compound 90, N′-(4-(2-chlorobenzyl)-2,5-dimethylphenyl)-N-cyano-N-(cyanomethyl)formimidamide], the pest or weed control at 500 ppm in the assay with Botrytis cinera fell in the range of 70 to 100%.
For `C=CCN(C)C=Nc1cc(C)c(Cc2ccccc2F)cc1C` [Compound 83, N-allyl-N′-(4-(2-fluorobenzyl)-2,5-dimethylphenyl)-N-methylformimidamide], the inhibition of growth at 300 ppm in the assay on Rhizoctonia solani is more than 80%; with Colletotrichum capsici, more than 80%; in the assay on Fusarium culmorum, 75%; in the assay on Alternaria solani, more than 75%; with Pyricularia oryzae, more than 75%; in the assay with Septoria lycopersici, more than 70%. In the assay on Botrytis cinerea, the inhibition of growth at 300 ppm was more than 80%.
For the molecule `CCN(C)C=Nc1cc(C)c(Cc2cccc(F)c2)cc1F` [Compound 209, N-ethyl-N′-(2-fluoro-4-(3-fluorobenzyl)-5-methylphenyl)-N-methylformimidamide], the inhibition of growth at 300 ppm in the assay with Rhizoctonia solani is more than 80%; in the assay on Colletotrichum capsici, more than 80%; with Fusarium culmorum it was 75%; in the assay with Alternaria solani it was more than 75%; in the assay on Pyricularia oryzae it was more than 75%; with Septoria lycopersici it was more than 70%. Also, the inhibition of growth at 300 ppm with Botrytis cinerea was more than 80%.
Turning to `CCN(C)C=Nc1cc(F)c(Cc2cccc(C(F)(F)F)c2)cc1C` [Compound 196, N-ethyl-N′-(5-fluoro-2-methyl-4-(3-(trifluoromethyl)benzyl)phenyl)-N-methylformimidamide], the inhibition of growth at 300 ppm in the assay on Rhizoctonia solani is more than 80%; in the assay on Colletotrichum capsici, more than 80%; in the assay on Fusarium culmorum, 75%; in the assay with Alternaria solani, more than 75%; in the assay on Pyricularia oryzae, more than 75%; with Septoria lycopersici, more than 70%. Also, the inhibition of growth at 300 ppm with Botrytis cinerea was more than 80%.
As for `CCN(C)C=Nc1cc(C)c(Cc2cccc(C)c2)cc1F` [Compound 210, N-ethyl-N′-(2-fluoro-5-methyl-4-(3-methylbenzyl)phenyl)-N-methylformimidamide], the inhibition of growth at 300 ppm in the assay on Rhizoctonia solani was more than 80%; in the assay on Colletotrichum capsici, more than 80%; in the assay on Fusarium culmorum, 75%; with Alternaria solani it was more than 75%; in the assay on Pyricularia oryzae, more than 75%; with Septoria lycopersici, more than 70%. Also, in the assay with Botrytis cinerea, the inhibition of growth at 300 ppm is more than 80%.
With `CCN(C)C=Nc1cc(C)c(Cc2ccccc2OC(F)(F)F)cc1F` [Compound 207, N-ethyl-N′-(2-fluoro-5-methyl-4-(2-(trifluoromethoxy)benzyl)phenyl)-N-methylformimidamide], the inhibition of growth at 300 ppm was more than 80% with Rhizoctonia solani; more than 80% in the assay with Colletotrichum capsici; 75% with Fusarium culmorum; more than 75% in the assay on Alternaria solani; more than 75% in the assay on Pyricularia oryzae; more than 70% in the assay with Septoria lycopersici. For the same molecule, the inhibition of growth at 300 ppm in the assay with Botrytis cinerea was more than 80%.
For `CCN(C)C=Nc1cc(C)c(Cc2ccc(SC(F)(F)F)cc2)cc1C` [Compound 92, N′-(2,5-dimethyl-4-(4-((trifluoromethyl)thio)benzyl)phenyl)-N-ethyl-N-methylformimidamide], the inhibition of growth at 300 ppm with Rhizoctonia solani is more than 80%; with Colletotrichum capsici, more than 80%; in the assay on Fusarium culmorum it was 75%; in the assay on Alternaria solani, more than 75%; in the assay with Pyricularia oryzae, more than 75%; with Septoria lycopersici, more than 70%. The inhibition of growth at 300 ppm in the assay on Botrytis cinerea was more than 80%.
`CCN(C)C=Nc1cc(C)c(Cc2ccccc2[S+](C)[O-])cc1C` (stereo not shown) [Compound 24, N′-(2,5-dimethyl-4-(2-(methylsulfinyl)benzyl)phenyl)-N-ethyl-N-methylformimidamide]: the inhibition of growth at 300 ppm was more than 80% in the assay with Rhizoctonia solani, more than 75% in the assay on Alternaria solani, more than 75% in the assay on Pyricularia oryzae and more than 70% with Septoria lycopersici. Further, the pest or weed control at 500 ppm in the assay with Botrytis cinera lay within 70 to 100%.
In the case of `CCN(C)C=Nc1cc(C)c(Cc2ccc(F)c(C)c2)cc1C` [Compound 109, N-ethyl-N′-(4-(4-fluoro-3-methylbenzyl)-2,5-dimethylphenyl)-N-methylformimidamide], the inhibition of growth at 300 ppm was more than 80% with Rhizoctonia solani; more than 80% in the assay with Colletotrichum capsici; 75% in the assay on Fusarium culmorum; more than 75% in the assay with Alternaria solani; more than 75% with Pyricularia oryzae; more than 70% with Septoria lycopersici. The inhibition of growth at 300 ppm in the assay on Botrytis cinerea is more than 80%.
As for `CCN(C)C=Nc1cc(Cl)c(Cc2ccccc2F)cc1C` [Compound 256, N′-(5-chloro-4-(2-fluorobenzyl)-2-methylphenyl)-N-ethyl-N-methylformimidamide], the inhibition of growth at 300 ppm in the assay on Rhizoctonia solani was more than 80%; in the assay with Colletotrichum capsici it was more than 80%; in the assay on Fusarium culmorum it was 75%; in the assay on Alternaria solani, more than 75%; with Pyricularia oryzae, more than 75%; in the assay with Septoria lycopersici it was more than 70%. Besides, in the assay on Botrytis cinerea, the inhibition of growth at 300 ppm is more than 80%.
Regarding `CCN(C)C=Nc1cc(C)c(Cc2cc(F)cc(F)c2)cc1Cl` [Compound 129, N′-(2-chloro-4-(3,5-difluorobenzyl)-5-methylphenyl)-N-ethyl-N-methylformimidamide], the inhibition of growth at 300 ppm in the assay on Rhizoctonia solani is more than 80%; with Colletotrichum capsici, more than 80%; with Fusarium culmorum, 75%; with Alternaria solani, more than 75%; with Pyricularia oryzae it was more than 75%; in the assay on Septoria lycopersici, more than 70%. Besides, the inhibition of growth at 300 ppm with Botrytis cinerea is more than 80%.

The values are drawn from patent US11155517B2, “4-substituted phenylamine derivatives and their use to protect crops by fighting undesired phytopathogenic micoorganisms” (PI INDUSTRIES LTD., priority 2016, dated 2021).
